Drawing on patent publication US9789096B2, “Methods and compositions for selective and targeted cancer therapy” (Board of Regents of the University of Texas System, priority 2013, dated 2017), this text covers IC50 and AC50 for 20 compounds.

In general, AC50 refers to the concentration at which the activity in the assay is half-maximal.

Bounds are passed on as bounds.

The first assay deals with H1819. The assay can be described thus: Cell viability dose-response, H1819. The format is cell-based, human. To be noted: Homo sapiens, NCI-H1819, Tables 3 and 4; read-out: IC50 (uM) vs indicated non-small cell lung cancer cell line H1819. An outline of the steps: (§1)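 Cells plated at 15% confluence in RPMI-1640 with 5% FBS and 2 mM L-glutamine, treated with compound in a 12-point, 3-fold dilution series from 50 micromolar, in duplicate. ATP measured by Cell Titer Glo after 4 days; IC50 taken from the dose-response curve.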
As to `Nc1nc2cc([N+](=O)[O-])ccc2s1` [SW053525], the IC50 was 182 µM.

The assay is the same for the next values; noted with them: Homo sapiens, NCI-H1819; Table 8; 12-point dose-response starting at 50 micromolar.
The compound `O=c1c(Cc2ccc(F)cc2)coc2cc(OCc3cnn(-c4ccccc4)c3)ccc12` [SW209188-1] had a concentration at half-maximal activity (AC50) of 49.5 µM. This counts as double-digit micromolar.
Same read-out and setting: with `O=c1c(Cc2ccccc2F)coc2cc(OCc3cnn(-c4ccccc4)c3)ccc12` [SW209189-1] the figure was 49.5 µM.
Same read-out and setting: the same measure for `Cc1ccc(Cc2coc3cc(OCc4cnn(-c5ccccc5)c4)ccc3c2=O)cc1` [SW209190-1]: 49.5 µM.
Regarding `O=c1c(Cc2ccc(Br)cc2)coc2cc(OCc3cnn(-c4ccccc4)c3)ccc12` [SW209191-1], the AC50 is 49.5 µM.
As for `O=c1c(Cc2ccccc2C(F)(F)F)coc2cc(OCc3cnn(-c4ccccc4)c3)ccc12` [SW209192-1], the AC50 amounted to 49.5 µM.

The next assay has as its system H2009. The assay can be described thus: Cell viability dose-response, H2009. The conditions noted are these: Homo sapiens, NCI-H2009, Table 8; 12-point dose-response starting at 50 micromolar. The format is cell-based, human. As for the experimental part: (§2) FIG. 6A. […] Cell viability is plotted vs. compound concentration. Compound was added to cells plated at 15% confluence in 96-well plates in RPMI-1640 media supplemented with 5% Fetal Bovine Serum and 2 mM L-Glutamine. After 4 days of incubation, ATP levels were measured using Cell Titer Glo (Promega). Data are presented as the average of 2 replicates ±SEM.
(§3) Selectivity may be measured by the half maximal inhibitory concentration (IC50), which, as used herein, is a measure of the effectiveness of a compound in killing cells. This quantitative measure indicates how much of a particular compound is needed to kill a particular cell population by half (e.g., as indicated by the amount of ATP). […] The IC50 can be determined by constructing a dose-response curve. The lower the IC50, the higher the potency, and the greater the difference between IC50 values for different cell lines (e.g., sensitive lines vs. insensitive lines, and sensitive lines vs. normal lines) the greater the selectivity. […]
(§4) With this information, we synthesized and tested a series of small molecules derived in conception from the oxalamide and chromone scaffold including N-acyl ureas, as shown in Tables 6-8. Each compound was tested in a 12-point dose-response study starting at 50 micromolar and decreasing in 3-fold increments to sub-nanomolar concentrations, in duplicate. Additionally, one or more additional cell line was tested in the same way.
The compound `O=c1c(Oc2ccccc2F)coc2cc(OCc3cn(-c4ccccc4)nn3)ccc12` [SW208232] returned a half-maximal activity concentration (AC50) of 49.5 µM.
The same measure, in the same setting: the same measure for `O=c1c(Oc2ccccc2Br)coc2cc(OCc3cnn(-c4ccccc4)c3)ccc12` [SW 208585-1]: 35 µM.

The same assay, now with this note: Homo sapiens, NCI-H2009; 12-point dose-response starting at 50 micromolar, 3-fold increments, in duplicate; read-out: toxicity data, H2009.
With `C#CCOc1ccc(C(=O)c2ccc(NC(=O)C(=O)NC(C)Cc3ccc(OC)cc3)cc2)cc1` (centres unmarked) [SW208217-1-A], the IC50 stood at 12.3 µM.
In the case of `C#CCOc1ccc(C(=O)c2ccc(NC(=O)C(=O)NCC(C)c3ccc(OC)cc3)cc2)cc1` (centres unmarked) [SW208219-1-A], the IC50 is at least 49.5 µM.
Consider `COc1ccc(CCNC(=O)NC(=O)c2ccc(C(=O)c3ccc(OC)cc3)cc2)cc1` [SW208220-1-A], for which the IC50 is at least 49.5 µM.
On the same count and under the same terms, with `COc1ccc(CCNC(=O)NC(=O)c2ccc(C(=O)c3ccccc3)cc2)cc1` [SW208222-1-A] the figure was 48 µM; with `COc1ccc(CCNC(=O)NC(=O)c2cccc(-c3ccc(OC)cc3)c2)cc1` [SW208386-1-A], 13.1 µM.
Still for that read-out and setting: the same measure for `COc1ccc(CCNC(=O)NC(=O)c2ccc(-c3ccc(OC)cc3)cc2)cc1` [SW208387-1-A]: at least 49.5 µM; for `COc1ccc(CCNC(=O)NC(=O)c2ccc(Br)cc2)cc1` [SW208388-1-A]: at least 49.5 µM.
The same measure, in the same setting: the same measure for `COc1ccc(CCNC(=O)NC(=O)c2cccc(Br)c2)cc1` [SW208389-1-A]: 35.6 µM; for `COC(=O)c1ccc(C(=O)NC(=O)NCCc2ccc(OC)cc2)cc1` [SW208390-1-A]: at least 49.5 µM.
Turning to `COc1ccc(CCNC(=O)NC(=O)c2ccc(-c3cc4ccccc4c4ccccc34)cc2)cc1` [SW208391-1-A], the IC50 worked out at 7.16 µM.
As for `COc1ccc(CCNC(=O)NC(=O)c2cccc(-c3cccc(Cl)c3)c2)cc1` [SW208392-1-A], the IC50 is at least 49.5 µM.
The same measure, in the same setting: the same measure for `COc1ccc(CCNC(=O)NC(=O)c2ccc(-c3ccccc3)cc2)cc1` [SW208393-1-A]: at least 49.5 µM.

Still in this assay, the particulars now being: Homo sapiens, NCI-H2009; Tables 3 and 4; read-out: IC50 (uM) vs indicated non-small cell lung cancer cell line H2009.
In the case of `Nc1nc2cc([N+](=O)[O-])ccc2s1` [SW053525], the IC50 came out at 1530 µM.

Another assay has as its system H2122. The assay can be described thus: Cell viability dose-response, H2122. The format is cell-based, human. To be noted: Homo sapiens, NCI-H2122, 12-point dose-response starting at 50 micromolar, 3-fold increments, in duplicate; read-out: toxicity data, H2122. The method in brief:
as §1
Consider `C#CCOc1ccc(C(=O)c2ccc(NC(=O)C(=O)NC(C)Cc3ccc(OC)cc3)cc2)cc1` (centres unmarked) [SW208217-1-A], for which the IC50 was at least 49.5 µM.
On the same count and under the same terms, the same measure for `C#CCOc1ccc(C(=O)c2ccc(NC(=O)C(=O)NCC(C)c3ccc(OC)cc3)cc2)cc1` (centres unmarked) [SW208219-1-A]: at least 49.5 µM; for `COc1ccc(CCNC(=O)NC(=O)c2ccc(C(=O)c3ccc(OC)cc3)cc2)cc1` [SW208220-1-A]: at least 49.5 µM.
Still for that read-out and setting: the same measure for `COc1ccc(CCNC(=O)NC(=O)c2ccc(C(=O)c3ccccc3)cc2)cc1` [SW208222-1-A]: 0.105 µM; for `COc1ccc(CCNC(=O)NC(=O)c2cccc(-c3ccc(OC)cc3)c2)cc1` [SW208386-1-A]: at least 49.5 µM.
Same read-out and setting: with `COc1ccc(CCNC(=O)NC(=O)c2ccc(-c3ccc(OC)cc3)cc2)cc1` [SW208387-1-A] the figure was 0.18 µM.
`COc1ccc(CCNC(=O)NC(=O)c2ccc(Br)cc2)cc1` [SW208388-1-A]: the IC50 is 0.16 µM.
For the compound `COc1ccc(CCNC(=O)NC(=O)c2cccc(Br)c2)cc1` [SW208389-1-A], the IC50 was at least 49.5 µM.
On the same count and under the same terms, with `COC(=O)c1ccc(C(=O)NC(=O)NCCc2ccc(OC)cc2)cc1` [SW208390-1-A] the figure was at least 49.5 µM.
On to `COc1ccc(CCNC(=O)NC(=O)c2ccc(-c3cc4ccccc4c4ccccc34)cc2)cc1` [SW208391-1-A], for which the IC50 is at least 49.5 µM.
Same read-out and setting: the same measure for `COc1ccc(CCNC(=O)NC(=O)c2cccc(-c3cccc(Cl)c3)c2)cc1` [SW208392-1-A]: 6.71 µM; for `COc1ccc(CCNC(=O)NC(=O)c2ccc(-c3ccccc3)cc2)cc1` [SW208393-1-A]: 0.17 µM.

Still in this assay, the particulars now being: Homo sapiens, NCI-H2122, Table 8; 12-point dose-response starting at 50 micromolar.
Regarding `O=c1c(Oc2ccccc2F)coc2cc(OCc3cn(-c4ccccc4)nn3)ccc12` [SW208232], the AC50 was at least 49.5 µM.
Same read-out and setting: with `O=c1c(Cc2ccc(F)cc2)coc2cc(OCc3cnn(-c4ccccc4)c3)ccc12` [SW209188-1] the figure was 0.086 µM.
The same measure, in the same setting: with `O=c1c(Cc2ccccc2F)coc2cc(OCc3cnn(-c4ccccc4)c3)ccc12` [SW209189-1] the figure was 0.08 µM; with `Cc1ccc(Cc2coc3cc(OCc4cnn(-c5ccccc5)c4)ccc3c2=O)cc1` [SW209190-1], 0.092 µM.
On the same count and under the same terms, with `O=c1c(Cc2ccc(Br)cc2)coc2cc(OCc3cnn(-c4ccccc4)c3)ccc12` [SW209191-1] the figure was 0.087 µM; with `O=c1c(Cc2ccccc2C(F)(F)F)coc2cc(OCc3cnn(-c4ccccc4)c3)ccc12` [SW209192-1], 0.028 µM.
The compound `O=c1c(Oc2ccccc2Br)coc2cc(OCc3cnn(-c4ccccc4)c3)ccc12` [SW 208585-1] gave a half-maximal activity concentration (AC50) of 0.1 µM.

Still in this assay, the particulars now being: Homo sapiens, NCI-H2122, Table 9, competitor; read-out: IC50 to H2122 cells.
On to `COc1ccc(CCNC(=O)NC(=O)c2ccc(C(=O)c3ccc(OC)cc3)cc2)cc1` [SW208220-1-A], for which the IC50 was found to be 0.8 µM.
Regarding `COc1ccc(CCNC(=O)NC(=O)c2ccc(C(=O)c3ccccc3)cc2)cc1` [SW208222-1-A], the IC50 is 0.142 µM.
Still for that read-out and setting: the same measure for `COc1ccc(CCNC(=O)NC(=O)c2ccc(-c3ccccc3)cc2)cc1` [SW208393-1-A]: 0.115 µM.

In another assay the test system is HCC44. The assay can be described thus: Cell viability dose-response, HCC44. The format is cell-based, human. The conditions noted are these: Homo sapiens, HCC44, 12-point dose-response starting at 50 micromolar, 3-fold increments, in duplicate; read-out: toxicity data, HCC44. As for the experimental part:
as §2, §3, §4
As for `C#CCOc1ccc(C(=O)c2ccc(NC(=O)C(=O)NC(C)Cc3ccc(OC)cc3)cc2)cc1` (centres unmarked) [SW208217-1-A], the IC50 was at least 49.5 µM.
Same read-out and setting: with `C#CCOc1ccc(C(=O)c2ccc(NC(=O)C(=O)NCC(C)c3ccc(OC)cc3)cc2)cc1` (centres unmarked) [SW208219-1-A] the figure was at least 49.5 µM.
The same measure, in the same setting: the same measure for `COc1ccc(CCNC(=O)NC(=O)c2ccc(C(=O)c3ccc(OC)cc3)cc2)cc1` [SW208220-1-A]: at least 49.5 µM; for `COc1ccc(CCNC(=O)NC(=O)c2ccc(C(=O)c3ccccc3)cc2)cc1` [SW208222-1-A]: 0.241 µM.
On the same count and under the same terms, with `COc1ccc(CCNC(=O)NC(=O)c2cccc(-c3ccc(OC)cc3)c2)cc1` [SW208386-1-A] the figure was at least 49.5 µM.
For the compound `COc1ccc(CCNC(=O)NC(=O)c2ccc(-c3ccc(OC)cc3)cc2)cc1` [SW208387-1-A], the IC50 is 0.25 µM.
Same read-out and setting: with `COc1ccc(CCNC(=O)NC(=O)c2ccc(Br)cc2)cc1` [SW208388-1-A] the figure was 0.42 µM; with `COc1ccc(CCNC(=O)NC(=O)c2cccc(Br)c2)cc1` [SW208389-1-A], at least 49.5 µM; with `COC(=O)c1ccc(C(=O)NC(=O)NCCc2ccc(OC)cc2)cc1` [SW208390-1-A], at least 49.5 µM.
As to `COc1ccc(CCNC(=O)NC(=O)c2ccc(-c3cc4ccccc4c4ccccc34)cc2)cc1` [SW208391-1-A], the IC50 is at least 49.5 µM.
On the same count and under the same terms, the same measure for `COc1ccc(CCNC(=O)NC(=O)c2cccc(-c3cccc(Cl)c3)c2)cc1` [SW208392-1-A]: at least 49.5 µM; for `COc1ccc(CCNC(=O)NC(=O)c2ccc(-c3ccccc3)cc2)cc1` [SW208393-1-A]: at least 49.5 µM.

The assay is the same for the next values; noted with them: Homo sapiens, HCC44, Table 8; 12-point dose-response starting at 50 micromolar.
Turning to `O=c1c(Oc2ccccc2F)coc2cc(OCc3cn(-c4ccccc4)nn3)ccc12` [SW208232], the AC50 was determined as 49.5 µM.
